Our source for the IC50 values is EP4737450A1 (Longwood Pharmaceuticals (Hangzhou) Co., Ltd, priority 2023, dated 2025).

This assay addresses T1, plasma kallikrein (PKa) (Homo sapiens, UniProt P03952).
T1 construct: purchased R & D 2497-SE
In words: Inhibitory activity against plasma kallikrein in vitro (fluorescence intensity enzyme assay, Pro-Phe-Arg-AMC substrate). Format: biochemical. The settings on record: Pro-Phe-Arg-AMC substrate. The protocol: Test of the inhibitory activities of the compounds of the present invention against plasma kallikrein (PKa), KLK1 and FXIa in vitro.
The final concentrations of enzyme protein and Pro-Phe-Arg-AMC in the reaction mixture were 10 nM and 60 µM, respectively. The starting concentration of the positive reference substance Avoralstat was 100 nM, 3-fold dilution, 10 + 0 dose. 0.05 µL of compound in 100% DMSO was delivered to a 384-well plate by an acoustic liquid delivery technique (Echo665; nanoliter range). Compound duplex test. […] IC50 values and nonlinear regression curve fitting were obtained using GraphPad Prism software.

Where [1] appears, read: plasma kallikrein enzyme assay, read-out: PKa IC50.

Where two headings read alike, the source gives them in different places.

T1 sequence (P03952 391-638 limits assumed): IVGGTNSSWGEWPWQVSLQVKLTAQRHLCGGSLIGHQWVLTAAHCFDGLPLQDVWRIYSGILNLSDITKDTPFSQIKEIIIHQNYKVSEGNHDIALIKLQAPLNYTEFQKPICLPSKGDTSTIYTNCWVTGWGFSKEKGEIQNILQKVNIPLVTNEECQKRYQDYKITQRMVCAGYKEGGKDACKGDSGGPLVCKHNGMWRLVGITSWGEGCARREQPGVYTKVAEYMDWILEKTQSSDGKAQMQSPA
T1 sequence (P03952 20-390 partner limits assumed): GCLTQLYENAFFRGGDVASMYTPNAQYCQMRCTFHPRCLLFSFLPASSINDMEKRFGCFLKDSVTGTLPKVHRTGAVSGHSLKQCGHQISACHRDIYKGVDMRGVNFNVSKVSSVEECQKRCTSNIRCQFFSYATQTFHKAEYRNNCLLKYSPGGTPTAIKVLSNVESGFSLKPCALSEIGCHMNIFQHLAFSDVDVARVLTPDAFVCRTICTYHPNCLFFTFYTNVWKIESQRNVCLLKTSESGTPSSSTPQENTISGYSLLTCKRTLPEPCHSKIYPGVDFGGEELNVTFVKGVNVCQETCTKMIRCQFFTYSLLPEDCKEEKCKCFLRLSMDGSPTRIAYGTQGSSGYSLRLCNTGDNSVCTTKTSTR

As a reminder, the IC50 is the concentration that inhibits the measured activity by half. In the case of `COc1ccc(F)c(CNC(=O)c2cn(Cc3ccc(Cn4ccccc4=O)cc3)nc2N2CC(C)(OC)C2)c1F` [Compound 291], the IC50 under setting [1] was 5.9 nM.

For the compound `COCCn1c(CNC(=O)c2cn(Cc3ccc(Cn4ccccc4=O)cc3)nc2COC)cc2cnccc21` [Compound 192], the IC50 under setting [1] is greater than 1000 nM.

Turning to `Nc1cc2c(cn1)[C@@H](NC(=O)c1ncn(Cc3cn4cc(C5CC5)ccc4n3)n1)CC2` [Compound 46], the IC50 under setting [1] was greater than 100 nM.

In the case of `COCc1nn(Cc2ccc(CN3C(=O)C4(CC4)c4ccc(F)cc43)cc2)cc1C(=O)NCc1nccc(OC)c1F` [Compound 138], the IC50 under setting [1] was greater than 1000 nM.

Regarding `Nc1cc2c(cn1)C(NC(=O)c1ncn(Cc3c(F)c(F)c(Cn4ccccc4=O)c(F)c3F)n1)CC2` (centres unmarked) [Compound 51], under setting [1], the IC50 is greater than 100 nM.

With `O=C(NCc1ncc2ccn(CCO)c2c1F)c1cnn(Cc2ccc(Cn3ccccc3=O)cc2)c1` [Compound 369, N-((7-fluoro-1-(2-hydroxyethyl)-1H-pyrrolo[3,2-c]pyridin-6-yl)methyl)-1-(4-((2-oxopyridin-1(2H)-yl)methyl]benzyl)-1H-pyrazole-4-carboxamide], the IC50 under setting [1] was 787 nM.

With `Cn1c(CNC(=O)c2cn(Cc3ccc(Cn4ccccc4=O)cc3)nc2C(F)(F)F)cc2cnccc21` [Compound 196], the IC50 under setting [1] was found to be 15.3 nM.

`Nc1cc2c(cn1)[C@H](NC(=O)c1ncn(Cc3cn4cc(C5CC5)ccc4n3)n1)CC2` [Compound 45]: the IC50 under setting [1] was greater than 100 nM.

As to `O=C(NCc1nccc(NCC2CC2)c1F)c1cn(Cc2ccc(Cn3ccccc3=O)cc2)nc1N1CC(F)(F)C1` [Compound 277], the IC50 under setting [1] is greater than 1000 nM.

On to `COc1ccc(F)c(CNC(=O)c2cn(Cc3ccc(Cn4ccccc4=O)cc3)nc2N2CC(F)(F)C2)c1F` [Compound 233], for which the IC50 under setting [1] came to 9.73 nM.

Take `Cn1cnc2c1CC[C@H]2NC(=O)c1nn(Cc2ccc(Cn3ccccc3=O)cc2)cc1C(F)F` [Compound 58]: the IC50 under setting [1] was found to be 17.4 nM.

`O=C(NCc1ccc2cnccc2c1)c1cnn(Cc2ccc(Cn3ccccc3=O)cc2)c1` [Compound 207]: the IC50 under setting [1] stood at 165 nM.

For the compound `CCc1cc(N2CC3C(C2)C3(F)F)ccc1Cn1cc(C(=O)NCc2cc3cnccc3[nH]2)c(COC)n1` (centres unmarked) [Compound 195], the IC50 under setting [1] came to 192 nM.

With `COc1ccnc(COC(=O)c2cn(Cc3ccc(Cn4cc(F)ccc4=O)cc3)nc2NC2(C)COC2)c1F` [Compound 284], the IC50 under setting [1] was 3.41 nM.

As for `COCc1nn(Cc2ccc(N3CC4C(C3)C4(F)F)cc2C#N)cc1C(=O)NCc1c(C)cn2cncc2c1C` (centres unmarked) [Compound 188], the IC50 under setting [1] came out at 2.74 nM.

Turning to `N=C(N)c1ccc(CNC(=O)c2cnn(Cc3c(Cl)cc(OCC4CC4)cc3Cl)c2)cc1` [Compound 359], the IC50 under setting [1] was 3.15 nM.

For `COCc1nn(Cc2ccc(N3CCCCC3=O)cc2C#N)cc1C(=O)NCc1nccc(OC)c1F` [Compound 182], the IC50 under setting [1] is greater than 1000 nM.

`Cc1cc(N)nc(C)c1CNC(=O)c1ncn(Cc2ccc(-n3ccccc3=O)cc2)n1` [Compound 63]: under setting [1], the 50% inhibitory concentration (IC50) was determined as 16.7 nM.

As to `COc1ccnc(CNC(=O)c2cn(Cc3ccc(Cn4ccccc4=O)cc3)nc2CN2CC(C)(C)CC2=O)c1F` [Compound 174], under setting [1], the IC50 amounted to 11.5 nM.

`O=C(NCc1ncc2c(n1)CNC2)c1cn(Cc2ccc(Cn3ccccc3=O)cc2)nc1C(F)(F)F` [Compound 156]: inhibition (PKa IC50, plasma kallikrein enzyme assay) was half-maximal at 669 nM (IC50).

For `Cc1nc(N)nc(C)c1CNC(=O)c1ncn(Cc2ccc(Cn3cc(F)ccc3=O)cc2)n1` [Compound 26], under setting [1], the IC50 stood at 699 nM.

With `Cc1cn2cncc2c(C)c1CNC(=O)c1cn(Cc2ccc(N3CC4C(C3)C4(F)F)cc2C#N)nc1C(F)(F)F` (centres unmarked) [Compound 200], the IC50 under setting [1] was 5.66 nM.

For `COc1ccnc(CNC(=O)c2cn(Cc3ccc(CN4CC(F)(F)C4)cc3)nc2C(F)(F)F)c1F` [Compound 124], the IC50 under setting [1] is greater than 1000 nM.

As to `O=C(NCc1nccc(N2CCC2)c1F)c1cn(Cc2ccc(Cn3ccccc3=O)cc2)nc1C1COC1` [Compound 346], the IC50 under setting [1] came to 5.64 nM.

Take `O=C(NCc1nccc(C2CC2)c1F)c1cn(Cc2ccc(Cn3ccccc3=O)cc2)nc1C1CC(F)(F)C1` [Compound 340]: the IC50 under setting [1] was determined as 48 nM.

As for `N=C(N)c1cnc(CNC(=O)c2cnn(Cc3ccc(CC4CC4)cc3)c2)c(F)c1` [Compound 358], under setting [1], the IC50 was found to be 6.06 nM.

For `COc1ccnc(CNC(=O)c2cn(Cc3ccc(Cn4ccccc4=O)cc3)nc2N2CC(C)(OC)C2)c1F` [Compound 232], the IC50 under setting [1] was found to be 7.15 nM.

On to `COc1ccc(F)c(CNC(=O)c2cn(Cc3ccc(Cn4ccccc4=O)cc3)nc2CN2C(=O)CCC2=O)c1F` [Compound 248], for which, under setting [1], the IC50 is 2.85 nM.

In the case of `Cc1cc(C(=N)N)nc(C)c1CNC(=O)c1cnn(Cc2ccc(CC3CC3)cc2)c1` [Compound 323], the half-maximal inhibitory concentration (IC50) under setting [1] turned out to be 65.6 nM.

For `O=C(NCc1nccc(NC2CCC2)c1F)c1cn(Cc2ccc(Cn3ccccc3=O)cc2)nc1C1COC1` [Compound 273], the IC50 under setting [1] was greater than 1000 nM.

With `O=C(NCc1nccc(NC2CCC2)c1F)c1cn(Cc2ccc(Cn3ccccc3=O)cc2)nc1N1CC(F)(F)C1` [Compound 278], the IC50 under setting [1] was greater than 1000 nM.

Consider `N=C(N)c1cnc(CNC(=O)c2cnn(Cc3ccc(CC4CC4)cc3)c2)cn1` [Compound 330], for which the IC50 under setting [1] was determined as 855 nM.

With `O=C(NCc1nccc(NCC2CC2)c1F)c1cn(Cc2ccc(Cn3ccccc3=O)cc2)nc1C1COC1` [Compound 276], the IC50 under setting [1] was greater than 1000 nM.

As to `CNc1ccnc(CNC(=O)c2cn(Cc3ccc(Cn4ccccc4=O)cc3)nc2C2COC2)c1F` [Compound 260, N-((3-fluoro-4-(methylamino)pyridin-2-yl)methyl)-3-(oxetan-3-yl)-1-(4-((2-oxopyridin-1(2H)-yl)methyl)benzyl)-1H-pyrazole-4-carboxamide], the IC50 under setting [1] came out at 7.78 nM.

As for `COCc1nn(Cc2ccc(Cn3ccccc3=O)cc2)cc1C(=O)NCc1[nH]c2cnccc2c1Cl` [Compound 136], the IC50 under setting [1] was found to be 36.2 nM.

Regarding `Cn1ncc2cnc(CNC(=O)c3cnn(Cc4ccc(Cn5ccccc5=O)cc4)c3)c(F)c21` [Compound 376], the IC50 under setting [1] was found to be 67 nM.

As to `COc1ccc(F)c(CNC(=O)c2cn(Cc3ccc(Cn4cc(F)ccc4=O)cc3)nc2COCCN2CCCC2)c1F` [Compound 231], under setting [1], the half-maximal inhibitory concentration (IC50) turned out to be 3.66 nM.

“N-((3-fluoro-4-methoxypyridin-2-yl)methyl)-3-(methoxymethyl)-1-(4-((2-oxo-2,3-dihydro-1H-pyrrolo[3,2-b]pyridin-1-yl)methyl]benzyl)-1H-pyrazole-4-carboxamide [Compound 113]”: the IC50 under setting [1] was greater than 100 nM.

For the compound `COCC1CN(c2nn(Cc3ccc(Cn4ccccc4=O)cc3)cc2C(=O)NCc2nccc(OC)c2F)C1` [Compound 306], under setting [1], the IC50 worked out at 12.8 nM.

As for `Nc1ncc(CNC(=O)c2cnn(Cc3ccc(Cn4ccccc4=O)cc3)c2)s1` [Compound 36], the IC50 under setting [1] was 523 nM.

For the compound `COCc1nn(Cc2ccc(Oc3ccccc3)cc2)cc1C(=O)NCc1nccc(OC)c1F` [Compound 117], under setting [1], the IC50 is greater than 1000 nM.

In the case of `COc1ccnc(CNC(=O)c2cn(Cc3ccc(Cn4ccccc4=O)cc3)nc2N2CC[C@@H](OC)C2)c1F` [Compound 171], under setting [1], the IC50 is 86 nM.

Consider `CN(C)c1ccnc(CNC(=O)c2cn(Cc3ccc(Cn4ccccc4=O)cc3)nc2C2CC(F)(F)C2)c1F` [Compound 342], for which the IC50 under setting [1] worked out at 6.29 nM.

On to `COc1ccc(F)c(CNC(=O)c2cn(Cc3ccc(Cn4cc(F)ccc4=O)cc3)nc2[C@@H](C)C2COC2)c1F` [Compound 180], for which the IC50 under setting [1] was 7.88 nM.

For the compound `COc1ccnc(CNC(=O)c2[nH]cc(Cc3ccc(Cn4ccccc4=O)cc3)c2C)c1F` [Compound 151], under setting [1], the IC50 came to 544 nM.

As to `Nc1ccnc(CNC(=O)c2cn(Cc3ccc(Cn4ccccc4=O)cc3)nc2N2CC(F)(F)C2)c1F` [Compound 268], under setting [1], the IC50 turned out to be 68.6 nM.

For the compound `CC(C)CNc1ccnc(CNC(=O)c2cn(Cc3ccc(Cn4ccccc4=O)cc3)nc2N2CC(F)(F)C2)c1F` [Compound 279], under setting [1], the IC50 is greater than 1000 nM.

`COc1ccc(F)c(CNC(=O)c2cn(Cc3ccc(Cn4cc(F)ccc4=O)cc3)nc2N[C@H]2CCOC2)c1F` [Compound 298]: under setting [1], the IC50 was 2.79 nM.

Turning to `COc1ccc(F)c(COC(=O)c2cn(Cc3ccc(Cn4cc(F)ccc4=O)cc3)nc2NC2(C)COC2)c1F` [Compound 237], the IC50 under setting [1] was found to be 2.78 nM.

With `Nc1ncc2cc(CNC(=O)c3cnn(Cc4ccc(Cn5ccccc5=O)cc4)c3)ccn12` [Compound 187], under setting [1], the IC50 amounted to 10.8 nM.

Turning to `COc1ccnc(CNC(=O)c2cn(Cc3ccc(Cn4ccccc4=O)cc3)nc2C2CC(OC)C2)c1F` (centres unmarked) [Compound 208], the IC50 under setting [1] came to 7.99 nM.

`COc1ccnc(CNC(=O)c2cc(Cc3ccc(Cn4ccccc4=O)cc3)cn2C)c1F` [Compound 88]: under setting [1], the IC50 was determined as 20.1 nM.

In the case of `COc1ccnc(CNC(=O)c2ncn(Cc3ccc(Cn4cc(F)ccc4=O)cc3)n2)c1F` [Compound 32], the IC50 under setting [1] is greater than 100 nM.

Take `COCc1nn(Cc2ccc(-n3ccccc3=O)cc2)cc1C(=O)NC1CCc2c1ncn2C` (centres unmarked) [Compound 96]: the IC50 under setting [1] was greater than 100 nM.

`CNc1ccnc(CNC(=O)c2cn(Cc3ccc(Cn4ccccc4=O)cc3)nc2N2CC(F)(F)C2)c1F` [Compound 265]: the IC50 under setting [1] came out at 6.91 nM.

Turning to `O=C(NCc1nccc(C2CC2)c1F)c1cn(Cc2ccc(Cn3ccccc3=O)cc2)nc1C1COC1` [Compound 339], the IC50 under setting [1] was found to be 31.6 nM.

Turning to `COc1ccnc(CNC(=O)c2cn(Cc3ccc(Cn4ccccc4=O)cc3)nc2CN2C[C@H](C)O[C@@H](C)C2)c1F` [Compound 309], the IC50 under setting [1] was determined as 273 nM.

For the compound `COc1ccc(F)c(CNC(=O)c2cn(Cc3ccc(Cn4cc(F)ccc4=O)cc3)nc2N2CC(F)(F)C2)c1F` [Compound 281], the IC50 under setting [1] came to 24.9 nM.

On to `Cc1cc(N)nc(C)c1CNC(=O)c1cnn(Cc2ccc(CC3CC3)cc2)c1` [Compound 280], for which the IC50 under setting [1] is 2.64 nM.
